Measured values from patent US20100272773A1, “Use of Drug Polymorphs to Achieve Controlled Drug Delivery From a Coated Medical Device” (BOSTON SCIENTIFIC SCIMED, INC., priority 2009, published 2010).

Experiment: Calculated time for complete dissolution of Ptx transferred to the vessel
Assay type: physicochemical
Details: ~23 μg Ptx transferred to vessel divided by dissolution rate
From the text: The ability to control the Ptx morphology on a drug coated balloon is important in achieving proper dosing. This is illustrated by the following example. […] Other factors such as particle size will also influence dissolution.

Compound	Time for complete dissolution of the Ptx	Time for complete dissolution
CC(=O)O[C@H]1C(=O)[C@@]2(C)[C@H]([C@H](OC(=O)c3ccccc3)[C@]3(O)C[C@H](OC(=O)[C@H](O)[C@@H](NC(=O)c4ccccc4)c4ccccc4)C(C)=C1C3(C)C)[C@]1(OC(C)=O)CO[C@@H]1C[C@@H]2O [PTx Anhydrous Crystal, paclitaxel]	about 1 day	
CC(=O)O[C@H]1C(=O)[C@@]2(C)[C@H]([C@H](OC(=O)c3ccccc3)[C@]3(O)C[C@H](OC(=O)[C@H](O)[C@@H](NC(=O)c4ccccc4)c4ccccc4)C(C)=C1C3(C)C)[C@]1(OC(C)=O)CO[C@@H]1C[C@@H]2O [PTx 2H2O Crystalline, paclitaxel]		about 10 days
